Laboratory results: patent publication US20040137514A1, “Use of antibodies against specific mhc-peptide complexes” (priority 2000, published 2004)
Blank lines part the entries; values can stand above or below the substance they belong to.

Key:
[1] = system: BLCL; assay: FACS control: peptide binding to BLCL; design: species or system human; conditions: data not shown
Experimental: Briefly, 10^6 BLCL were incubated with 40 μg peptide in 500 μl DMEM/HAM's F12 or blank medium for 4 h at 37° C. After this incubation, the cells were washed with PBS, 2% FCS, 0.02% sodiumazide. Approximately 2×10^5 cells were incubated for 1 h, 4° C. with 130 μl MAb-containing hybridoma supernatant plus 20 μl PBS, 20% FCS, 0.02% sodiumazide. After washing the cells twice with PBS, 2% FCS, 0.02% sodiumazide, they were incubated for 1 h, 4° C. with 50 μl PBS, 20% FCS, 0.02% sodiumazide plus 10 μl Goat anti-mouseIg/FITC (Beckton & Dickinson). Subsequently, the cells were washed three times with PBS, 2% FCS, 0.02% sodiumazide and finally resuspended in 400 μl PBS, 2% p-formaldehyde. As a control for peptide binding, cells were incubated with biotinylated HC gp39263-275 and stained with streptavidin/PE (Beckton & Dickinson). As a control for HLA-DR expression, staining was performed with anti-HLA/DR, L243 (purified Ig from hybridoma ATCC HB 55). Stained cells were analyzed with the FACScan™ (Beckton & Dickinson). In all cases, forward and side scatter analysis was applied to eliminate dead cells and debris from further analysis.
These homozygous BLCL were loaded with HC gp-39263-275 and subsequently stained with ORG38948 12A. In a series of experiments, ORG38948 12A stains HC gp-39^263-275 in the context of both DRB1*0401 and DRB1*0407 (Table V). […]

[2] = intranasal administration prior to immunization; cited from earlier work
[3] = DBA/1 mice, semi-therapeutic regime; cited from earlier work
[4] = BALB/c mice; cited from earlier work
[5] = system: T cells of RA patients; conditions: cited from earlier work

binding of peptide to the BLCL [1]: binds to the BLCL
Substance: RSFTLASSETG

Substance: human cartilage glycoprotein-39 [HC gp-39]
DTH responses [2]: complete abrogation of DTH responses
disease development [2]: protection from or delayed onset of the disease
incidence and severity of collagen type II induced arthritis [3]: could reduce
outcome of immunisation [4]: development of a chronic, relapsing arthritis

Substance: 326-338: peptide 326-338 of HC gp-39 (VGYDDQESVKSKV; HC gp-39 AA 326-338; listed as Homo sapiens)
recognition by T cells of RA patients [5]: recognized
